Experimental data: the supplement of paper PMC10307832

Tests used:
Test in all cases: relative viability (nuclei count vs DMSO), 5 days (fraction); higher = more cells survive
[1] = compound: Cc1ccc(NC(=O)c2ccc(CN3CCN(C)CC3)cc2)cc1Nc1nccc(-c2cccnc2)n1 [Imatinib] + CC(=O)Nc1cccc(-n2c(=O)n(C3CC3)c(=O)c3c(Nc4ccc(I)cc4F)n(C)c(=O)c(C)c32)c1 [Trametinib] (partner 0.02 µM)
In short: (§1)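 One day after seeding in 1536-well plates, lung cancer cell lines were dosed by pin tool. Dosing was either single-drug or a fixed anchor-drug dose plus five library-drug doses (not always all listed) in √10 steps. After 5 days, nuclei were stained in one fix-and-stain step and counted on 4× images, and relative viability is the nuclei count of treated wells over that of vehicle wells, given as the median of duplicate plates.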

[2] = compound: Cc1ccc(NC(=O)c2ccc(CN3CCN(C)CC3)cc2)cc1Nc1nccc(-c2cccnc2)n1 [Imatinib] + COc1cc2c(Oc3ccc(NC(=O)C4(C(=O)Nc5ccc(F)cc5)CC4)cc3F)ccnc2cc1OCCCN1CCOCC1 [Foretinib] (partner 0.25 µM)
In short: as §1

[3] = compound: Cc1ccc(NC(=O)c2ccc(CN3CCN(C)CC3)cc2)cc1Nc1nccc(-c2cccnc2)n1 [Imatinib] + CC(=O)c1c(C)c2cnc(Nc3ccc(N4CCNCC4)cn3)nc2n(C2CCCC2)c1=O [Palbociclib] (partner 0.5 µM)
In short: as §1

[4] = compound: Cc1ccc(NC(=O)c2ccc(CN3CCN(C)CC3)cc2)cc1Nc1nccc(-c2cccnc2)n1 [Imatinib] + CC(C)C[C@H](NC(=O)[C@H](Cc1ccccc1)NC(=O)c1cnccn1)B(O)O [Bortezomib] (partner 0.002 µM)
In short: as §1

Row | Cell Line | relative viability ([1]; first compound 0.02 µM) | relative viability ([1]; first compound 0.06325 µM) | relative viability ([1]; first compound 0.2 µM) | relative viability ([1]; first compound 0.6325 µM) | relative viability ([1]; first compound 2 µM) | relative viability ([2]; first compound 0.02 µM) | relative viability ([2]; first compound 0.06325 µM) | relative viability ([2]; first compound 0.2 µM) | relative viability ([2]; first compound 0.6325 µM) | relative viability ([2]; first compound 2 µM) | relative viability ([3]; first compound 0.02 µM) | relative viability ([3]; first compound 0.06325 µM) | relative viability ([3]; first compound 0.2 µM) | relative viability ([3]; first compound 0.6325 µM) | relative viability ([3]; first compound 2 µM) | relative viability ([4]; first compound 0.02 µM) | relative viability ([4]; first compound 0.06325 µM) | relative viability ([4]; first compound 0.2 µM) | relative viability ([4]; first compound 0.6325 µM) | relative viability ([4]; first compound 2 µM)
1 | NCI-H650 | 0.969 | 0.833 | 0.937 | 1.04 | 0.843 | 1.07 | 0.78 | 1.03 | 1.17 | 0.977 | 0.303 | 0.356 | 0.353 | 0.349 | 0.298 | 0.893 | 0.823 | 0.805 | 1.03 | 0.616
2 | NCI-H2009 | 0.319 | 0.214 | 0.255 | 0.296 | 0.246 | 1.29 | – | 1.27 | 1.25 | 1.23 | 0.202 | 0.157 | 0.194 | 0.2 | 0.203 | 1.05 | 0.476 | 1.08 | 1 | 0.906
3 | EKVX | 0.376 | – | 0.295 | 0.325 | – | – | 0.585 | 0.68 | 0.736 | 0.988 | 0.377 | – | 0.384 | 0.456 | – | 1.03 | 1.14 | 1.13 | 1.15 | 1.09
4 | NCI-H596 | 0.721 | 1.06 | 0.876 | 0.693 | – | 0.948 | – | 0.931 | 0.855 | 0.832 | – | – | – | – | – | 1.2 | 1.02 | – | 0.944 | –
5 | NCI-H3122 | 0.25 | 0.292 | 0.236 | 0.253 | 0.216 | 0.879 | 1.12 | – | 0.887 | 0.984 | 0.194 | 0.19 | 0.199 | 0.192 | 0.205 | 0.985 | 1.06 | 1.04 | 0.96 | 1.05
6 | NCI-H2085 | 0.49 | 0.515 | 0.535 | 0.58 | 0.513 | – | 0.941 | 1.02 | 1.01 | 0.972 | 0.447 | 0.45 | 0.506 | 0.481 | 0.47 | 1.05 | 0.902 | 1.08 | 1.13 | 1.04
7 | NCI-H441 | 0.537 | 0.459 | 0.572 | 0.517 | 0.37 | 0.72 | 1.1 | 1.11 | 1.16 | 0.916 | 0.22 | 0.213 | 0.229 | 0.229 | 0.233 | 1.12 | 0.616 | 0.543 | 0.439 | 0.435
8 | NCI-H1395 | 1.07 | – | 1.13 | 0.999 | 0.997 | 0.952 | 1.15 | 1 | – | 1.02 | 0.622 | – | 0.579 | 0.526 | 0.589 | – | – | – | – | –
9 | NCI-H1944 | 0.408 | 0.376 | 0.449 | 0.436 | 0.402 | 0.923 | 0.946 | 0.964 | 0.851 | 0.852 | 0.347 | 0.306 | 0.373 | 0.316 | 0.42 | – | – | – | – | –
10 | NCI-H1793 | 0.472 | – | 0.582 | 0.404 | 0.368 | 0.827 | – | 0.919 | 0.682 | 0.715 | 0.293 | – | 0.315 | 0.291 | 0.307 | – | – | – | – | –
11 | SK-MES-1 | 0.642 | 0.663 | 0.589 | 0.587 | 0.588 | 0.957 | 0.915 | 1.03 | 0.786 | 0.963 | 0.318 | 0.336 | 0.321 | 0.316 | 0.294 | – | – | – | – | –
12 | NCI-H1651 | 0.876 | 0.795 | 0.859 | 0.84 | 0.82 | 0.902 | 0.619 | 0.87 | 0.79 | 0.77 | 0.478 | 0.543 | 0.564 | 0.492 | 0.543 | 1.03 | 0.83 | 0.964 | 0.955 | 0.893
13 | LCLC-97TM1 | 0.235 | – | 0.183 | 0.207 | 0.172 | 0.934 | – | 1.03 | 0.927 | 0.905 | 0.25 | – | 0.267 | 0.172 | 0.219 | 0.552 | – | – | 0.741 | 0.524
14 | LXF-289 | 0.662 | – | 0.755 | 0.636 | 0.679 | 1.01 | 0.914 | 1.14 | 0.848 | 0.95 | 0.602 | – | 0.655 | 0.556 | 0.578 | 1.06 | – | 1.13 | 0.974 | 0.955
15 | 201T | 0.694 | 0.697 | 0.738 | 0.681 | 0.7 | 1.21 | – | 1.06 | 1.04 | 1.12 | 0.337 | 0.336 | 0.35 | 0.329 | 0.361 | 1.08 | – | 1.13 | – | 1.06
16 | NCI-H1650 | 0.579 | 0.471 | 0.404 | 0.635 | 0.559 | 0.962 | – | 1.01 | 1.2 | 1.06 | 0.341 | 0.344 | 0.342 | 0.295 | 0.301 | 0.211 | 0.204 | 0.22 | 0.22 | 0.233
17 | NCI-H322M | 0.45 | 0.48 | 0.546 | 0.535 | 0.507 | 1.09 | 1.03 | 1.01 | 0.883 | 0.935 | 0.474 | 0.518 | 0.501 | 0.423 | 0.495 | 1.16 | 1.34 | 1.26 | 1.1 | 1.1
18 | NCI-H2405 | 0.623 | 0.538 | 0.637 | 0.516 | 0.634 | 1.03 | – | 1.05 | 0.986 | 1.02 | 0.534 | 0.57 | 0.533 | 0.493 | 0.572 | – | 0.857 | 0.92 | 1.01 | 0.983
19 | NCI-H838 | 0.504 | 0.549 | 0.608 | 0.569 | 0.486 | 1.15 | 1.17 | 1.07 | 1.02 | 1.02 | 0.254 | 0.255 | 0.241 | 0.254 | 0.247 | 1.04 | 0.823 | 0.947 | 1 | 0.886
